Data published in PMC8205226, “HIV-1 Integrase Inhibitors with Modifications That Affect Their Potencies against Drug Resistant Integrase Mutants” (ACS Infectious Diseases, 2021).
Read-outs that look alike come from different tables or passages of the source.

What was measured:
[1] = tested on: HIV-1 IN mutant R231K; test: single-round infectivity assay, R231K IN mutant; type: cell-based
Protocol: (§1) Figure 5 Antiviral potencies of the new compounds against IN with mutations in the […]. The EC50 values were determined using a vector that carries the IN mutant in a single round infection assay. […] Error bars represent the standard deviations of independent experiments, n = 4, performed in triplicate.
(§2) WT and mutant HIV-1 viral vectors were used in single-round infectivity assays to determine the antiviral potencies (EC50 values) of the compounds and the effects of the mutants on the EC50 values as previously described.[30],[54] Single round infectivity measurements were determined as done previously.[38]
(§3) The vector pNLNgoMIVR-ΔENV.LUC has been described previously.[26] To produce the new IN mutants used in this study, the IN open reading frame was removed from pNLNgoMIVR-ΔENV.LUC by digestion with KpnI and SalI, and the resulting fragment was inserted between the KpnI and SalI sites of pBluescript KS+. Using that construct as the wild-type template, we prepared the following HIV-1 IN mutants using the QuikChange II XL site directed mutagenesis kit (Agilent Technologies, Santa Clara, CA) protocol: N117A, N117H, P142A, P142H, P142S, Y143C, Y143H, S230R, R231G, and R231K. The following sense oligonucleotides were used with matching cognate antisense oligonucleotides (not shown) (Integrated DNA Technologies, Coralville, IA) in the mutagenesis: N117A, 5′-[…]-3′; N117H, 5′-[…]-3′; P142A, 5′-[…]-3′; P142H, 5′-[…]-3′; P142S, 5′-[…]-3′; Y143C, 5′- […]-3′; Y143H, 5′-[…]-3′; S230R, 5′- […]-3′; R231G, 5′-[…]-3′; R231K, 5′-[…]-3′.

[2] = tested on: HIV-1 IN mutant N117H; test: single-round infectivity assay, N117H IN mutant; type: cell-based
Protocol: (§4) The EC50 values were determined using a vector that carries the IN mutant in a single round infection assay. […] Error bars represent the standard deviations of independent experiments, n = 4, performed in triplicate.
as §2, §3

[3] = tested on: HIV-1 IN mutant S119R; test: single-round infectivity assay, S119R IN mutant; type: cell-based
Protocol: as §4, §2, §3

[4] = tested on: HIV-1 IN mutant G118R; test: single-round infectivity assay, G118R IN mutant; type: cell-based
Protocol: as §4, §2, §3

[5] = tested on: HIV-1 IN mutant N155H; test: single-round infectivity assay, N155H IN mutant; type: cell-based; settings: EC50 compound / EC50 DTG
Protocol: (§5) Figure 2 Antiviral activities of the new compounds against RAL-resistant mutants. The EC50 values were determined using a vector that carries WT HIV-1 IN and the RAL-resistant mutants in a single round infection assay. […] Error bars represent the standard deviations of independent experiments, n = 4, performed in triplicate. The graph has a maximum value of 550 nM.
as §2, §3

[6] = tested on: HIV-1 IN mutant S230R; test: single-round infectivity assay, S230R IN mutant; type: cell-based
Protocol: as §1, §2, §3

[7] = tested on: HIV-1 IN mutant Y143R; test: single-round infectivity assay, Y143R IN mutant; type: cell-based; settings: EC50 compound / EC50 DTG
Protocol: as §5, §2, §3

[8] = tested on: HIV-1 IN mutant P142H; test: single-round infectivity assay, P142H IN mutant; type: cell-based
Protocol: as §4
Single round infectivity measurements were determined as done previously.[38]
as §3

[9] = tested on: HIV-1 IN mutant Y143H; test: single-round infectivity assay, Y143H IN mutant; type: cell-based
Protocol: as §4, with “Figure 4 Mutations in the β5-α3 loop affect the antiviral potencies of the new compounds. The” for “The”
as §2, §3

[10] = tested on: HIV-1 IN mutant G118R; settings: single round infection; previously shown; cited from earlier work
[11] = tested on: WT HIV-1; settings: vector carrying WT HIV-1 IN, single round infection; previously reported; cited from earlier work
[12] = tested on: HIV-1 IN double mutant G140S/Q148H; settings: single round infection; previously reported; cited from earlier work
[13] = tested on: HIV-1 IN mutant P142A; test: single-round infectivity assay, P142A IN mutant; type: cell-based
Protocol: as §4, with “Figure 4 Mutations in the β5-α3 loop affect the antiviral potencies of the new compounds. The” for “The”
as §2, §3

[14] = tested on: HIV-1 IN mutant R231G; test: single-round infectivity assay, R231G IN mutant; type: cell-based
Protocol: as §1, §2, §3

[15] = tested on: HIV-1 IN mutant Y143C; test: single-round infectivity assay, Y143C IN mutant; type: cell-based
Protocol: as §4, with “Figure 4 Mutations in the β5-α3 loop affect the antiviral potencies of the new compounds. The” for “The”
as §2, §3

[16] = tested on: HIV-1 IN mutant N117A; test: single-round infectivity assay, N117A IN mutant; type: cell-based
Protocol: as §4, §2, §3

[17] = tested on: HIV-1 IN mutant P142S; test: single-round infectivity assay, P142S IN mutant; type: cell-based
Protocol: as §4, with “Figure 4 Mutations in the β5-α3 loop affect the antiviral potencies of the new compounds. The” for “The”
as §2, §3

[18] = tested on: HIV-1 IN double mutant G140S/Q148H; test: single-round infectivity assay, G140S/Q148H IN double mutant; type: cell-based; settings: EC50 compound / EC50 DTG
Protocol: as §5, §2, §3

[19] = fold change in EC50, IN mutant versus WT HIV-1

Structure (SMILES): Nc1c(C(=O)NCc2ccc(F)cc2F)c(=O)n(O)c2ncc(CCS(=O)(=O)c3ccccc3)cc12 [4f]
- ratio of the EC50s (our compound relative to DTG) against R231K ([1]; EC50 compound / EC50 DTG): 0.8
- EC50 ([1]; Human immunodeficiency virus 1, read-out: EC50 values R231K, single round infection, n = 4): 3.3 ± 0.2 nM
- EC50 ([1]; read-out: EC50 values R231K, single round infection, n = 4): < 5 nM
- ratio of the EC50s (our compound relative to DTG) against N117H ([2]; EC50 compound / EC50 DTG): 1.1
- EC50 ([2]; Human immunodeficiency virus 1, read-out: EC50 values N117H): 2.7 nM
- FC N117H [2, 19]: 1.4
- ratio of the EC50s (our compound relative to DTG) against S119R ([3]; EC50 compound / EC50 DTG): 1.1
- EC50 ([3]; Human immunodeficiency virus 1, read-out: EC50 values S119R): 2.6 ± 0.4 nM
- FC S119R [3, 19]: 1.3
- ratio of the EC50s (our compound relative to DTG) against G118R ([4]; EC50 compound / EC50 DTG): 0.9
- FC G118R [4, 19]: 5.7
- ratio of the EC50s (our compound relative to DTG) against N155H [5]: 0.6
- ratio of the EC50s (our compound relative to DTG) against S230R ([6]; EC50 compound / EC50 DTG): 1.0
- EC50 ([6]; Human immunodeficiency virus 1, read-out: EC50 values S230R): 4.8 ± 0.3 nM
- FC S230R [6, 19]: 2.4
- ratio of the EC50s (our compound relative to DTG) against Y143R [7]: 0.1
- ratio of the EC50s (our compound relative to DTG) against P142H ([8]; EC50 compound / EC50 DTG): 0.6
- EC50 ([8]; Human immunodeficiency virus 1, read-out: EC50 values P142H): 1.7 ± 0.2 nM
- FC P142H [8, 19]: 0.9
- ratio of the EC50s (our compound relative to DTG) against Y143H ([9]; EC50 compound / EC50 DTG): 1.0
- EC50 ([9]; Human immunodeficiency virus 1, read-out: EC50 values Y143H, single round infection, n = 4): 2.3 ± 0.1 nM
- FC Y143H [9, 19]: 1.2
- EC50 ([9]; read-out: EC50 values Y143H, single round infection, n = 4): < 3 nM
- EC50 [10]: 11.4 ± 3.5 nM
- EC50 [11]: 2 ± 0.1 nM
- EC50 [12]: 5.2 ± 0.3 nM
- ratio of the EC50s (our compound relative to DTG) against P142A ([13]; EC50 compound / EC50 DTG): 1.1
- EC50 ([13]; Human immunodeficiency virus 1, read-out: EC50 values P142A): 2.8 ± 0.1 nM
- FC P142A [13, 19]: 1.4
- ratio of the EC50s (our compound relative to DTG) against R231G ([14]; EC50 compound / EC50 DTG): 1.4
- EC50 ([14]; Human immunodeficiency virus 1, read-out: EC50 values R231G): 2 ± 0.2 nM
- FC R231G [14, 19]: 1.0
- ratio of the EC50s (our compound relative to DTG) against Y143C ([15]; EC50 compound / EC50 DTG): 1.2
- EC50 ([15]; Human immunodeficiency virus 1, read-out: EC50 values Y143C, single round infection, n = 4): 1.7 ± 0.4 nM
- FC Y143C [15, 19]: 0.9
- EC50 ([15]; read-out: EC50 values Y143C, single round infection, n = 4): < 3 nM
- EC50 ([16]; Human immunodeficiency virus 1, read-out: EC50 values N117A): 0.8 nM
- FC N117A [16, 19]: 0.4
- ratio of the EC50s (our compound relative to DTG) against P142S ([17]; EC50 compound / EC50 DTG): 0.7
- EC50 ([17]; Human immunodeficiency virus 1, read-out: EC50 values P142S): 1.5 ± 0.3 nM
- FC P142S [17, 19]: 0.8
- ratio of the EC50s (our compound relative to DTG) against G140S/Q148H [18]: 0.9
